Reference: patent US20210009542A1 (Calico Life Sciences LLC, priority 2018, published 2021)

Biological target: T1, His tagged PTPN2 (TC45) protein (Homo sapiens, UniProt P17706)
T1 construct: made in house
T1 sequence (P17706 with tags, fused parts or gaps isoform P17706-2): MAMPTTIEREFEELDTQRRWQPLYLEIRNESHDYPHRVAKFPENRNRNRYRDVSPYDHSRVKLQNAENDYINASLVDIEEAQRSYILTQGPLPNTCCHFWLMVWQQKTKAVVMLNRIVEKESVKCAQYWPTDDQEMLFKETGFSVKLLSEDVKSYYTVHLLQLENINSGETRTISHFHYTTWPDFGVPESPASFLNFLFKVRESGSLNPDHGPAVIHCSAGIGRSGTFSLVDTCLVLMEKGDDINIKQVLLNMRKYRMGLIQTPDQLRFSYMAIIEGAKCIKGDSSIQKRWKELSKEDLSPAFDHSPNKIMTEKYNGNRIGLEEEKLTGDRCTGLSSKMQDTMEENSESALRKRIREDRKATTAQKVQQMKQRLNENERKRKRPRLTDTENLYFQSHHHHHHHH
Assay: Mobility shift assay (MSA) for potency of PTPN2 inhibitors
Assay type: biochemical
Conditions: read-out: PTPN2 MSA IC50
Protocol: Compound activity was determined using in house His tagged PTPN2 (TC45) protein (SEQ ID NO: 1) in an in vitro enzymatic reaction. The enzymatic assay used to determine activity was a mobility shift assay using a LabChip EZ Reader by Caliper Life Sciences. The enzymatic reaction was carried out in assay buffer (50 mM HEPES pH 7.5, 1 mM EGTA, 10 mM EDTA, 0.01% Tween® 20, and 2 mM DTT). The compounds were dispensed on a white 384 well ProxiPlate™ (PerkinElmer Catalog #6008289) plate using the Labcyte Echo at varying concentrations (12 point, 1:3 dilution). The enzyme (at 0.5 nM) was incubated with compound for 10 minutes at room temperature. Then the substrate (phosphorylated insulin receptor probe sequence: ((OG488)-(NH—CH2—CH2—O—CH2—CH2—O—CH2—CO)-T-R-D-I-(PY)-E-T-D-Y-Y-R-K-K-NH2) (SEQ ID NO: 2) was added at […] to the plates and incubated for another 10 minutes at room temperature. Finally, a quench solution (water and 4-bromo-3-(2-oxo-2-propoxyethoxy)-5-(3-{[1-(phenylmethanesulfonyl)piperidin-4-yl]amino}phenyl)thiophene-2-carboxylic acid) was added to the plates, which were then run on the EZ Reader (excitation 488 nm, emission 530 nm) to measure % conversion (the amount of phosphorylated substrate which was de-phosphorylated by PTPN2). […] The % inhibition was then used to calculate the IC50 values.

Cc1n[nH]c(C)c1COc1ccc2cc(O)c(N3CC(=O)NS3(=O)=O)c(F)c2c1 [Compound 318, 5-{7-[(3,5-dimethyl-1H-pyrazol-4-yl)methoxy]-1-fluoro-3-hydroxynaphthalen-2-yl}-1λ^6,2,5-thiadiazolidine-1,1,3-trione] gave an IC50 of 1 to 10 nM.
In the case of O=C1CN(c2c(O)cc3ccc(C4=CCN(CC(F)(F)F)CC4)cc3c2F)S(=O)(=O)N1 [Compound 275, 5-{1-fluoro-3-hydroxy-7-[1-(2,2,2-trifluoroethyl)-1,2,3,6-tetrahydropyridin-4-yl]naphthalen-2-yl}-1λ^6,2,5-thiadiazolidine-1,1,3-trione], the IC50 is reported as 1 to 10 nM.
For O=C(CNc1ccc2cc(O)c(N3CC(=O)NS3(=O)=O)c(F)c2c1)NCCC1CC1 [Compound 268, N-(2-cyclopropylethyl)-2-{[8-fluoro-6-hydroxy-7-(1,1,4-trioxo-1λ^6,2,5-thiadiazolidin-2-yl)naphthalen-2-yl]amino}acetamide], the IC50 was 1 to 10 nM.
In the case of CC(C)CCCc1ccc2cc(O)c(N3CC(=O)NS3(=O)=O)c(F)c2c1 [Compound 219, 5-[1-fluoro-3-hydroxy-7-(4-methylpentyl)naphthalen-2-yl]-1λ^6,2,5-thiadiazolidine-1,1,3-trione], the IC50 is reported as 1 to 10 nM.
CC(C)CCNc1ccc2c(F)c(O)c(N3CC(=O)NS3(=O)=O)c(F)c2c1 [Compound 148, 5-{1,4-difluoro-3-hydroxy-7-[(3-methylbutyl)amino]naphthalen-2-yl}-1λ^6,2,5-thiadiazolidine-1,1,3-trione] was tested, and the IC50 was 1 to 10 nM.
O=C1CN(c2c(O)c(Br)c3ccc(C4=CCN(S(=O)(=O)C5CC5)C4)cc3c2F)S(=O)(=O)N1 [Compound 231A, 5-{4-bromo-7-[1-(cyclopropanesulfonyl)-2,5-dihydro-1H-pyrrol-3-yl]-1-fluoro-3-hydroxynaphthalen-2-yl}-1λ^6,2,5-thiadiazolidine-1,1,3-trione] was tested, and the IC50 was 1 to 10 nM.
CCNCCCc1ccc2cc(O)c(N3CC(=O)NS3(=O)=O)c(F)c2c1 [Compound 140, 5-{7-[3-(ethylamino)propyl]-1-fluoro-3-hydroxynaphthalen-2-yl}-1λ^6,2,5-thiadiazolidine-1,1,3-trione] showed an IC50 of 1 to 10 nM.
O=C1CN(c2c(O)cc3ccc(CC4CNC4)cc3c2F)S(=O)(=O)N1 [Compound 267, 5-{7-[(azetidin-3-yl)methyl]-1-fluoro-3-hydroxynaphthalen-2-yl}-1λ^6,2,5-thiadiazolidine-1,1,3-trione] was tested, and the IC50 was 10 to 100 nM.
Compound CNCCOc1ccc2cc(O)c(N3CC(=O)NS3(=O)=O)c(F)c2c1 [Compound 143, 5-{1-fluoro-3-hydroxy-7-[2-(methylamino)ethoxy]naphthalen-2-yl}-1λ^6,2,5-thiadiazolidine-1,1,3-trione] has an IC50 of 1 to 10 nM.
Work on N#CCc1ccc2cc(O)c(N3CC(=O)NS3(=O)=O)c(F)c2c1 [Compound 228, [8-fluoro-6-hydroxy-7-(1,1,4-trioxo-1λ^6,2,5-thiadiazolidin-2-yl)naphthalen-2-yl]acetonitrile] yielded an IC50 of 1 to 10 nM.
With O=C1CN(c2c(O)cc3ccc(CO)cc3c2F)S(=O)(=O)N1 [Compound 185, 5-[1-fluoro-3-hydroxy-7-(hydroxymethyl)naphthalen-2-yl]-1λ^6,2,5-thiadiazolidine-1,1,3-trione] the IC50 was 1 to 10 nM.
Compound CC1(COc2ccc3cc(O)c(N4CC(=O)NS4(=O)=O)c(F)c3c2)COC1 [Compound 230, 5-{1-fluoro-3-hydroxy-7-[(3-methyloxetan-3-yl)methoxy]naphthalen-2-yl}-1λ^6,2,5-thiadiazolidine-1,1,3-trione] has an IC50 of 1 to 10 nM.
With O=C1CN(c2c(O)cc3ccc(C4=CCN(S(=O)(=O)C5CCC5)C4)cc3c2F)S(=O)(=O)N1 [Compound 316, 5-{7-[1-(cyclobutanesulfonyl)-2,5-dihydro-1H-pyrrol-3-yl]-1-fluoro-3-hydroxynaphthalen-2-yl}-1λ^6,2,5-thiadiazolidine-1,1,3-trione] the IC50 was < 1 nM.
C[C@@H](O)CCCc1ccc2cc(O)c(N3CC(=O)NS3(=O)=O)c(F)c2c1 [Compound 151, 5-{1-fluoro-3-hydroxy-7-[(4R)-4-hydroxypentyl]naphthalen-2-yl}-1λ^6,2,5-thiadiazolidine-1,1,3-trione] gave an IC50 of 1 to 10 nM.
O=C1CN(c2c(O)cc3ccc(C4=CCN(S(=O)(=O)c5ccsc5)C4)cc3c2F)S(=O)(=O)N1 [Compound 314, 5-{1-fluoro-3-hydroxy-7-[1-(thiophene-3-sulfonyl)-2,5-dihydro-1H-pyrrol-3-yl]naphthalen-2-yl}-1λ^6,2,5-thiadiazolidine-1,1,3-trione] was tested, and the IC50 was < 1 nM.
Work on O=C1CN(c2c(O)cc3ccc(C4CCCNC4)cc3c2F)S(=O)(=O)N1 (centres unmarked) [Compound 191, 5-[1-fluoro-3-hydroxy-7-(piperidin-3-yl)naphthalen-2-yl]-1λ^6,2,5-thiadiazolidine-1,1,3-trione] yielded an IC50 of 1 to 10 nM.
With O=C1CN(c2c(O)cc3ccc(C4=CCNC4)cc3c2F)S(=O)(=O)N1 [Compound 265, 5-[7-(2,5-dihydro-1H-pyrrol-3-yl)-1-fluoro-3-hydroxynaphthalen-2-yl]-1λ^6,2,5-thiadiazolidine-1,1,3-trione] the IC50 was 1 to 10 nM.
With O=C1CN(c2c(O)cc3ccc(CC(F)F)cc3c2F)S(=O)(=O)N1 [Compound 196, 5-[7-(2,2-difluoroethyl)-1-fluoro-3-hydroxynaphthalen-2-yl]-1λ^6,2,5-thiadiazolidine-1,1,3-trione] the IC50 was 1 to 10 nM.
Work on Cc1n[nH]c(C)c1-c1ccc2cc(O)c(N3CC(=O)NS3(=O)=O)c(F)c2c1 [Compound 319, 5-[7-(3,5-dimethyl-1H-pyrazol-4-yl)-1-fluoro-3-hydroxynaphthalen-2-yl]-1λ^6,2,5-thiadiazolidine-1,1,3-trione] yielded an IC50 of 1 to 10 nM.
For O=C1CN(c2c(O)cc3ccc(C4=CCN(S(=O)(=O)c5ccccc5)C4)cc3c2F)S(=O)(=O)N1 [Compound 315, 5-{7-[1-(benzenesulfonyl)-2,5-dihydro-1H-pyrrol-3-yl]-1-fluoro-3-hydroxynaphthalen-2-yl}-1λ^6,2,5-thiadiazolidine-1,1,3-trione], the IC50 was < 1 nM.
Work on CC(C)CN(C)CCOc1ccc2cc(O)c(N3CC(=O)NS3(=O)=O)c(F)c2c1 [Compound 253, 5-(1-fluoro-3-hydroxy-7-{2-[methyl(2-methylpropyl)amino]ethoxy}naphthalen-2-yl)-1λ^6,2,5-thiadiazolidine-1,1,3-trione] yielded an IC50 of 1 to 10 nM.
Work on CCNC(=O)NCCOc1ccc2cc(O)c(N3CC(=O)NS3(=O)=O)c(F)c2c1 [Compound 270, N-ethyl-N′-(2-{[8-fluoro-6-hydroxy-7-(1,1,4-trioxo-1λ^6,2,5-thiadiazolidin-2-yl)naphthalen-2-yl]oxy}ethyl)urea] yielded an IC50 of 1 to 10 nM.
Work on O=C1CN(c2c(O)cc3ccc(OCCCn4cccn4)cc3c2F)S(=O)(=O)N1 [Compound 183, 5-{1-fluoro-3-hydroxy-7-[3-(H-pyrazol-1-yl)propoxy]naphthalen-2-yl}-1λ^6,2,5-thiadiazolidine-1,1,3-trione] yielded an IC50 of 1 to 10 nM.
Work on CC(C)NCCOc1ccc2cc(O)c(N3CC(=O)NS3(=O)=O)c(F)c2c1 [Compound 145, 5-(1-fluoro-3-hydroxy-7-{2-[(propan-2-yl)amino]ethoxy}naphthalen-2-yl)-1λ^6,2,5-thiadiazolidine-1,1,3-trione] yielded an IC50 of 10 to 100 nM.
CC(C)OCCNc1ccc2cc(O)c(N3CC(=O)NS3(=O)=O)c(F)c2c1 [Compound 172, 5-[1-fluoro-3-hydroxy-7-({2-[(propan-2-yl)oxy]ethyl}amino)naphthalen-2-yl]-1λ^6,2,5-thiadiazolidine-1,1,3-trione] showed an IC50 of 1 to 10 nM.
Compound O=C(O)CNc1ccc2cc(O)c(N3CC(=O)NS3(=O)=O)c(F)c2c1 [Compound 280, {[8-fluoro-6-hydroxy-7-(1,1,4-trioxo-1λ^6,2,5-thiadiazolidin-2-yl)naphthalen-2-yl]amino}acetic acid] has an IC50 of 10 to 100 nM.
O=C1CN(c2c(O)cc3ccc(NCC4CC4)cc3c2F)S(=O)(=O)N1 [Compound 202, 5-{7-[(cyclopropylmethyl)amino]-1-fluoro-3-hydroxynaphthalen-2-yl}-1λ^6,2,5-thiadiazolidine-1,1,3-trione] gave an IC50 of 1 to 10 nM.
Compound O=C1CN(c2c(O)cc3ccc(C(=O)NCC4CC4)cc3c2F)S(=O)(=O)N1 [Compound 136, N-(cyclopropylmethyl)-8-fluoro-6-hydroxy-7-(1,1,4-trioxo-1λ^6,2,5-thiadiazolidin-2-yl)naphthalene-2-carboxamide] has an IC50 of 1 to 10 nM.
Work on CS(=O)(=O)N1CCC(Oc2ccc3cc(O)c(N4CC(=O)NS4(=O)=O)c(F)c3c2)CC1 [Compound 284, 5-(1-fluoro-3-hydroxy-7-{[1-(methanesulfonyl)piperidin-4-yl]oxy}naphthalen-2-yl)-1λ^6,2,5-thiadiazolidine-1,1,3-trione] yielded an IC50 of 1 to 10 nM.
